# Laboratory results published in patent US20250154172A1, “PRMT5 INHIBITORS AND USES THEREOF” (Gilead Sciences, Inc., priority 2023, published 2025).
# How the values were obtained:
# [1] = tested on: HCT116 MTAP-deleted cell lines; assay: Cell viability assay for HCT116 isogenic pair (CellTitre-Glo, 7 days); format: cell-based; details: Homo sapiens, HCT-116, 168 h, 7 days of treatment, cell line not given
# Method in brief: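 HCT116 WT or MTAP-deleted cells, 100 per well, seeded onto pre-spotted PRMT5 inhibitor dose series in RPMI 1640/10% heat-inactivated FBS and grown 7 days at 37° C, 5% CO2. CellTiter-Glo luminescence then read; CC50 (nM) from 4-parameter logistic fit.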
# SW780 = assay: Cell viability assay for additional cell lines: SW780; format: cell-based; details: for GI50: Homo sapiens, 216 h, 9-day treatment, average of n=2, read-out: MTAP-Deleted GI50
# Protocol: Some Compounds of the Disclosure were tested in Calu-6 (Vendor: ATCC; Cat #HTB-56; Description: lung, adenocarcinoma), LU99 (Vendor: JCRB; Cat #JCRB0080; Description: non-small cell lung cancer), SW780 (Vendor: ATCC; Cat #CRL-2169; Description: bladder urothelial carcinoma), BxPC-3 (Vendor: ATCC; Cat #CRL-1687; Description: pancreatic adenocarcinoma), Panc-1 (Vendor: ATCC; Cat #CRL-1469 Description: pancreatic adenocarcinoma), AsPC-1 (Vendor: ATCC; Cat #CRL-1682; Description: pancreatic adenocarcinoma), Calu-6 (Vendor: ATCC; Cat #HTB-56; Description: non-small cell lung cancer), and U-2 OS (Vendor: ATCC; Cat #HTB-96; Description: osteosarcoma), cellular viability assays according to the general protocol. Seeded cells into 96-well plate and incubated overnight. Seeded an additional 10 wells per cell line in an additional 96-well plate for assessing Time Zero luminescence and incubated overnight. To treatment plates, added compounds into each well using Tecan D300e dispenser (nine three-fold dilutions starting at 10 μM) and incubated for 9 days. Time Zero (no compound treatment, luminescence assessed on day 1) and 9-day treatment (luminescence assessed on day 10) plates were assessed using the same CellTiter-Glo® substrate protocol. Thawed CellTiter-Glo® Buffer and lyophilized CellTiter-Glo® substrate and equilibrated to room temperature prior to use. The DMSO concentration was normalized to 0.137%. Transferred 100 ml CellTiter-Glo® Buffer into amber bottle containing CellTiter-Glo® substrate to reconstitute the lyophilized enzyme/substrate mixture. For Time Zero and 9-day treatment plates, removed all plating media. Added 100 μl fresh media/well. Added 100 μl CellTiter-Glo® Reagent per well. Mixed contents for 10 min on an orbital shaker to lyse cells. Recorded luminescence with Perkin Elmer Envision 2105 machine. Analyzed the data with GraphPad software. Potency fold difference is defined as GI50 (AMG193)/GI50 (Ca-47) for the MTAP^del cell line of interest. The structure of AMG193 is as follows.
SMILES,CC50 [1] [nM],GI50 (SW780) [nM],Potency fold difference (SW780; GI50 (AMG193)/GI50 (Ca-47))
"Nc1nc2cnc(C(=O)N3CCOC[C@@H]3c3ccc(C(F)(F)F)cc3)cc2c2c1COC2 [AMG193, reference compound]",69,96,–
"Nc1nc2cnc(C(=O)N3CCC[C@@H]4Oc5cc(C(F)(F)F)cc(F)c5[C@@H]43)cc2c2c1COC2 [Example Ca-47, (4-amino-1,3-dihydrofuro[3,4-c][1,7]naphthyridin-8-yl)((4aS,9bS)-9-fluoro-7-(trifluoromethyl)-3,4,4a,9b-tetrahydrobenzofuro[3,2-b]pyridin-1(2H)-yl)methanone]",14,17,5.6
